# According to US10759816B2, “Heterocyclic compounds as RSV inhibitors” (Enanta Pharmaceuticals, Inc., priority 2016, dated 2020):
# Tested on: genotype A, "Long" strain RSV
# Assay: RSV-A in vitro cytoprotection assay in HEp-2 cells (ATPlite readout of cell viability)
# Format: cell-based, Human respiratory syncytial virus
# Conditions: human respiratory syncytial virus, HEp-2, HEp-2 cells, genotype A “Long” strain RSV, cytoprotection; read-out: Human RSV-A (“Long” strain) EC50
# Procedure, shortened: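 Cytoprotection measured as ATP-based luminescence (ATPlite) after 4-day incubation of RSV Long-infected HEp-2 cells (8,000/well, 10% FBS DMEM) with 2-fold serial compound dilutions in duplicate. Identically treated virus-free plate gives cytotoxicity; EC50 calculated from viability.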
row,SMILES,EC50 [µM]
1,COc1ncc(-c2cccc(C(=O)N3CCc4cc(C(=O)NC5CC5)sc4-c4ccccc43)n2)cc1C [Example 163],< 0.4
2,O=C(NC1CC1)c1cc2c(s1)-c1ccccc1N(C(=O)c1cccc(-c3cn[nH]c3C3CC3)n1)CC2 [Example 164],< 0.4
3,O=C(NC1CC1)c1cc2c(s1)-c1ccccc1N(C(=O)c1cccc(-c3cncn3C3CC3)n1)CC2 [Example 165],< 0.4
4,O=C(NC1CC1)c1cc2c(s1)-c1ccccc1N(C(=O)c1cccc(-c3ccnc(C4CC4)c3)n1)CC2 [Example 166],> 0.8
5,O=C(NC1CC1)c1cc2c(s1)-c1ccccc1N(C(=O)c1cccc(-c3csc(N4CCOCC4)n3)n1)CC2 [Example 167],> 0.8
6,COc1ccc(-c2cccc(C(=O)N3CCc4cc(C(=O)Nc5ccccc5)sc4-c4ccccc43)n2)cn1 [Example 168],> 0.8
7,Cc1cccc(F)c1NC(=O)c1cc2c(s1)-c1ccc(F)cc1N(C(=O)c1cccc(-c3c[nH]c4ncc(F)cc34)n1)CC2 [Example 169],< 0.4
8,Cc1cccc(F)c1NC(=O)c1cc2c(s1)-c1ccc(F)cc1N(C(=O)c1cccc(-c3cn[nH]c3C3CC3)n1)CC2 [Example 170],< 0.4
9,Cc1cccc(F)c1NC(=O)c1cc2c(s1)-c1c(F)cccc1N(C(=O)c1cccc(-c3cn[nH]c3C3CC3)n1)CC2 [Example 171],< 0.4
10,Cc1cccc(F)c1NC(=O)c1cc2c(s1)-c1ccc(F)cc1N(C(=O)c1cccc(-c3c[nH]c4ncccc34)n1)CC2 [Example 173],< 0.4
11,CCn1nccc1-c1cccc(C(=O)N2CCc3cc(C(=O)Nc4c(C)cccc4F)sc3-c3ccc(F)cc32)n1 [Example 174],< 0.4
12,O=C(NC1CCC(F)(F)CC1)c1cc2c(s1)-c1ccccc1N(C(=O)c1cccc(-c3c[nH]nc3C3CC3)n1)CC2 [Example 175],< 0.4
13,O=C(N[C@@H]1CCOC1)c1cc2c(s1)-c1ccccc1N(C(=O)c1cccc(-c3c[nH]nc3C3CC3)n1)CC2 [Example 176],< 0.4
14,O=C(N[C@H]1CCOC1)c1cc2c(s1)-c1ccccc1N(C(=O)c1cccc(-c3c[nH]nc3C3CC3)n1)CC2 [Example 177],< 0.4
15,O=C(NC1CCC1)c1cc2c(s1)-c1ccccc1N(C(=O)c1cccc(-c3c[nH]nc3C3CC3)n1)CC2 [Example 178],< 0.4
16,O=C(NC1CC(F)(F)C1)c1cc2c(s1)-c1ccccc1N(C(=O)c1cccc(-c3c[nH]nc3C3CC3)n1)CC2 [Example 179],< 0.4
17,O=C(NC1CCOCC1)c1cc2c(s1)-c1ccccc1N(C(=O)c1cccc(-c3c[nH]nc3C3CC3)n1)CC2 [Example 180],< 0.4
18,O=C(NC1CS(=O)(=O)C1)c1cc2c(s1)-c1ccccc1N(C(=O)c1cccc(-c3c[nH]nc3C3CC3)n1)CC2 [Example 181],> 0.8
19,O=C(NC1CNC1)c1cc2c(s1)-c1ccccc1N(C(=O)c1cccc(-c3c[nH]nc3C3CC3)n1)CC2 [Example 182],> 0.8
20,CN1CC(NC(=O)c2cc3c(s2)-c2ccccc2N(C(=O)c2cccc(-c4c[nH]nc4C4CC4)n2)CC3)C1 [Example 183],> 0.8
21,CS(=O)(=O)N1CC(NC(=O)c2cc3c(s2)-c2ccccc2N(C(=O)c2cccc(-c4c[nH]nc4C4CC4)n2)CC3)C1 [Example 184],> 0.8

row,SMILES,EC50 [µM]
1,CC(=O)N1CC(NC(=O)c2cc3c(s2)-c2ccccc2N(C(=O)c2cccc(-c4c[nH]nc4C4CC4)n2)CC3)C1 [Example 185],> 0.8
2,O=C(NC1CC1)c1cc2c(s1)-c1ccccc1N(C(=O)c1ccc3ccc(-c4ccncc4)cc3n1)CC2 [Example 186],> 0.8
3,O=C(NC1CC1)c1cc2c(s1)-c1ccccc1N(C(=O)c1ccc3ccc(-c4ccncc4)nc3c1)CC2 [Example 187],> 0.8
4,Cc1cccc(F)c1NC(=O)c1cc2c(s1)-c1ccccc1N(C(=O)c1cccc(-c3ccc4ncccc4c3)n1)CC2 [Example 188],< 0.4
5,Cc1cccc(F)c1NC(=O)c1cc2c(s1)-c1ccccc1N(C(=O)c1cccc(-c3ccc4nccc(Cl)c4c3)n1)CC2 [Example 189],> 0.8
6,Cc1cccc(F)c1NC(=O)c1cc2c(s1)-c1ccccc1N(C(=O)c1cccc(-c3ccc4[nH]c(=O)ccc4c3)n1)CC2 [Example 190],< 0.4
7,Cc1cccc(F)c1NC(=O)c1cc2c(s1)-c1ccccc1N(C(=O)c1cccc(-c3ccc4ccc(=O)[nH]c4c3)n1)CC2 [Example 191],> 0.8
8,Cc1cccc(F)c1NC(=O)c1cc2c(s1)-c1ccccc1N(C(=O)c1cccc(-c3ccc4c(c3)COC4)n1)CC2 [Example 192],0.4 to 0.8
9,Cc1cccc(F)c1NC(=O)c1cc2c(s1)-c1ccccc1N(C(=O)c1cccc(-c3ccc4occc4c3)n1)CC2 [Example 193],> 0.8
10,Cc1cccc(F)c1NC(=O)c1cc2c(s1)-c1ccccc1N(C(=O)c1cccc(-c3ccc4c(c3)CNC4=O)n1)CC2 [Example 194],0.4 to 0.8
11,Cc1cccc(F)c1NC(=O)c1cc2c(s1)-c1ccccc1N(C(=O)c1cccc(-c3ccc4c(c3)CN(C)C4=O)n1)CC2 [Example 195],< 0.4
12,Cc1cccc(F)c1NC(=O)c1cc2c(s1)-c1ccccc1N(C(=O)c1cccc(-c3c[nH]nc3C3CC3)n1)CC2 [Example 196],< 0.4
13,Cc1cccc(F)c1NC(=O)c1cc2c(s1)-c1ccccc1N(C(=O)c1cccc(-c3cn(C)nc3C3CC3)n1)CC2 [Example 197],< 0.4
14,Cc1cccc(F)c1NC(=O)c1cc2c(s1)-c1ccccc1N(C(=O)c1cccc(-c3cnc(C)n3C3CC3)n1)CC2 [Example 198],< 0.4
15,Cc1cccc(F)c1NC(=O)c1cc2c(s1)-c1ccccc1N(C(=O)c1cccc(-c3cncn3C3CCC3)n1)CC2 [Example 199],< 0.4
16,Cc1cccc(F)c1NC(=O)c1cc2c(s1)-c1ccccc1N(C(=O)c1cccc(-c3cnc(C4CC4)n3C3CC3)n1)CC2 [Example 200],< 0.4
17,Cc1cccc(F)c1NC(=O)c1cc2c(s1)-c1ccccc1N(C(=O)c1cccc(-c3cncn3C3(C)CC3)n1)CC2 [Example 201],> 0.8
18,Cc1cccc(F)c1NC(=O)c1cc2c(s1)-c1ccccc1N(C(=O)c1cccc(-c3cnc(C(F)(F)F)n3C3CC3)n1)CC2 [Example 202],< 0.4
19,Cc1cccc(F)c1NC(=O)c1cc2c(s1)-c1ccccc1N(C(=O)c1cccc(-c3cncn3-c3ccccc3)n1)CC2 [Example 203],> 0.8
20,COc1ccc(-n2cncc2-c2cccc(C(=O)N3CCc4cc(C(=O)Nc5c(C)cccc5F)sc4-c4ccccc43)n2)cc1 [Example 204],> 0.8
21,Cc1cccc(F)c1NC(=O)c1cc2c(s1)-c1ccccc1N(C(=O)c1cccc(-c3cncn3-c3ccccc3F)n1)CC2 [Example 205],> 0.8

row,SMILES,EC50 [µM]
1,Cc1cccc(F)c1NC(=O)c1cc2c(s1)-c1ccccc1N(C(=O)c1cccc(-c3c[nH]c4ccccc34)n1)CC2 [Example 207],< 0.4
2,Cc1cccc(F)c1NC(=O)c1cc2c(s1)-c1ccccc1N(C(=O)c1cccc(-c3cn(C)c4ccccc34)n1)CC2 [Example 208],> 0.8
3,Cc1cccc(F)c1NC(=O)c1cc2c(s1)-c1ccccc1N(C(=O)c1cccc(-c3c(C)n[nH]c3C)n1)CC2 [Example 209],< 0.4
4,Cc1cccc(F)c1NC(=O)c1cc2c(s1)-c1ccccc1N(C(=O)c1cccc(-c3c[nH]nc3C(F)(F)F)n1)CC2 [Example 210],< 0.4
5,Cc1cccc(F)c1NC(=O)c1cc2c(s1)-c1ccccc1N(C(=O)c1cccc(-c3c[nH]nc3N3CCOCC3)n1)CC2 [Example 211],> 0.8
6,Cc1cccc(F)c1NC(=O)c1cc2c(s1)-c1ccccc1N(C(=O)c1cccc(-c3cn[nH]c3-c3ccccc3)n1)CC2 [Example 212],< 0.4
7,Cc1cccc(F)c1NC(=O)c1cc2c(s1)-c1ccccc1N(C(=O)c1cccc(-c3cn[nH]c3)n1)CC2 [Example 213],< 0.4
8,COC(=O)n1cc(-c2cccc(C(=O)N3CCc4cc(C(=O)Nc5c(C)cccc5F)sc4-c4ccccc43)n2)c(C2CC2)n1 [Example 214],< 0.4
9,Cc1cccc(F)c1NC(=O)c1cc2c(s1)-c1ccccc1N(C(=O)c1cccc(-c3cn(S(C)(=O)=O)nc3C3CC3)n1)CC2 [Example 215],< 0.4
10,Cc1cccc(F)c1NC(=O)c1cc2c(s1)-c1ccccc1N(C(=O)c1cccc(-c3cnn(S(C)(=O)=O)c3C3CC3)n1)CC2 [Example 216],< 0.4
11,CNC(=O)n1cc(-c2cccc(C(=O)N3CCc4cc(C(=O)Nc5c(C)cccc5F)sc4-c4ccccc43)n2)c(C2CC2)n1 [Example 217],< 0.4
12,CNC(=O)n1ncc(-c2cccc(C(=O)N3CCc4cc(C(=O)Nc5c(C)cccc5F)sc4-c4ccccc43)n2)c1C1CC1 [Example 218],< 0.4
13,Cc1cccc(F)c1NC(=O)c1cc2c(s1)-c1ccccc1N(C(=O)c1cccc(-c3cn(C(=O)N(C)C)nc3C3CC3)n1)CC2 [Example 219],0.4 to 0.8
14,CCS(=O)(=O)n1cc(-c2cccc(C(=O)N3CCc4cc(C(=O)Nc5c(C)cccc5F)sc4-c4ccccc43)n2)c(C2CC2)n1 [Example 220],0.4 to 0.8
15,Cc1cccc(F)c1NC(=O)c1cc2c(s1)-c1ccccc1N(C(=O)c1cccc(-c3cn(S(=O)(=O)C4CC4)nc3C3CC3)n1)CC2 [Example 221],< 0.4
16,Cc1cccc(F)c1NC(=O)c1cc2c(s1)-c1ccccc1N(C(=O)c1cccc(-c3cnn(S(=O)(=O)C4CC4)c3C3CC3)n1)CC2 [Example 222],0.4 to 0.8
17,Cc1cccc(F)c1NC(=O)c1cc2c(s1)-c1ccccc1N(C(=O)c1cccc(-c3cn(C(=O)OC(C)C)nc3C3CC3)n1)CC2 [Example 223],< 0.4
18,CCOC(=O)n1cc(-c2cccc(C(=O)N3CCc4cc(C(=O)Nc5c(C)cccc5F)sc4-c4ccccc43)n2)c(C2CC2)n1 [Example 224],< 0.4
19,Cc1cccc(F)c1NC(=O)c1cc2c(s1)-c1ccccc1N(C(=O)c1cccc(-c3cn(C(=O)C(C)C)nc3C3CC3)n1)CC2 [Example 225],< 0.4
20,COCCn1cc(-c2cccc(C(=O)N3CCc4cc(C(=O)Nc5c(C)cccc5F)sc4-c4ccccc43)n2)c(C2CC2)n1 [Example 226],> 0.8
21,Cc1cccc(F)c1NC(=O)c1cc2c(s1)-c1ccccc1N(C(=O)c1cccc(-c3cn(CCS(C)(=O)=O)nc3C3CC3)n1)CC2 [Example 227],> 0.8
